Measured values: patent US6087355A, “Cephalosporin antibiotics” (Microcide Pharmaceuticals, Inc., priority 1996, dated 2000)
Converted amounts (≈) assume the structure as drawn. Structures can show the parent of a compound that is named as a salt.

Experiments:
[1] = test system: E. coli ATCC 25992; experiment: In vitro MIC, agar dilution; format: cell-based; conditions: Escherichia coli, ATCC25992, read-out: minimum inhibitory concentration (MIC)
In short: (§1)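 Spots of about 10^4 cfu of log-phase culture were applied, and plates were incubated 16-20 h at 35-36 °C. MIC was the lowest concentration inhibiting growth.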

[2] = test system: S. aureus PC1(Meth^S)(lac^+); experiment: In vitro MIC, agar dilution; format: cell-based; conditions: Staphylococcus aureus, read-out: minimum inhibitory concentration (MIC)
In short: as §1

[3] = test system: E. faecalis VanB(Van^R); experiment: In vitro MIC, agar dilution; format: cell-based; conditions: Enterococcus faecalis, read-out: minimum inhibitory concentration (MIC)
In short: as §1

[4] = test system: S. haemolyticus 05(Meth^R); experiment: In vitro MIC, agar dilution; format: cell-based; conditions: Staphylococcus haemolyticus, read-out: minimum inhibitory concentration (MIC)
In short: as §1

[5] = test system: P. aeruginosa ATCC 27853; experiment: In vitro MIC, agar dilution; format: cell-based; conditions: Pseudomonas aeruginosa, ATCC27853, read-out: minimum inhibitory concentration (MIC)
In short: as §1

[6] = test system: S. aureus ATCC 33593(Meth^R); experiment: In vitro MIC, agar dilution; format: cell-based; conditions: Staphylococcus aureus, ATCC33593, read-out: minimum inhibitory concentration (MIC)
In short: as §1

[7] = test system: E. faecium VanA(Van^R); experiment: In vitro MIC, agar dilution; format: cell-based; conditions: Enterococcus faecium, read-out: minimum inhibitory concentration (MIC)
In short: as §1

[8] = test system: S. aureus 76(Meth^R)(lac^+); experiment: In vitro MIC, agar dilution; format: cell-based; conditions: Staphylococcus aureus, read-out: minimum inhibitory concentration (MIC)
In short: as §1

[9] = test system: E. faecium A491(Amp^R); experiment: In vitro MIC, agar dilution; format: cell-based; conditions: Enterococcus faecium, read-out: minimum inhibitory concentration (MIC)
In short: as §1

[10] = test system: E. faecalis ATCC 29212; experiment: In vitro MIC, agar dilution; format: cell-based; conditions: Enterococcus faecalis, ATCC29212, read-out: minimum inhibitory concentration (MIC)
In short: as §1

[11] = test system: S. aureus ATCC 29213; experiment: In vitro MIC, agar dilution; format: cell-based; conditions: Staphylococcus aureus, ATCC29213, read-out: minimum inhibitory concentration (MIC)
In short: as §1

[12] = test system: S. aureus Spain #356(Meth^R); experiment: In vitro MIC, agar dilution; format: cell-based; conditions: Staphylococcus aureus, read-out: minimum inhibitory concentration (MIC)
In short: as §1

[13] = test system: E. faecium ATCC 35667; experiment: In vitro MIC, agar dilution; format: cell-based; conditions: Enterococcus faecium, ATCC35667, read-out: minimum inhibitory concentration (MIC)
In short: as §1

[14] = test system: S. aureus ATCC 13709(Meth^S); experiment: In vitro MIC, agar dilution; format: cell-based; conditions: Staphylococcus aureus, ATCC13709, S. aureus ATCC 13709(Meth^S); read-out: minimum inhibitory concentration (MIC)
In short: as §1

[15] = test system: S. aureus Col(Meth^R)(lac^-); experiment: In vitro MIC, agar dilution; format: cell-based; conditions: Staphylococcus aureus, read-out: minimum inhibitory concentration (MIC)
In short: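 Two-fold dilutions (128 to ≤0.25 μg/mL, in duplicate) were poured into Mueller-Hinton agar. Log-phase broth cultures were spot-inoculated at about 10^4 cfu per spot and incubated 35-36°C for 16-20 hours; the MIC was the lowest concentration inhibiting growth. Col is a high-level PBP2a producer; Col 8A is its isogenic PBP2a-lacking partner.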

[16] = test system: S. aureus strain ATCC 13709 (methicillin-susceptible); experiment: Murine model for lethal bacteremic peritonitis; format: in vivo, female Swiss-Webster mice; conditions: Staphylococcus aureus, ATCC13709, SC, 72 h; for responders at 1.25 mg/kg: read-out: Survivors (converted); for ED50: two equal doses, IP challenge, read-out: ED50
In short: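 Female Swiss-Webster mice were challenged IP with an LD100 inoculum in 7% hog gastric mucin, then given test drug subcutaneously in twofold increments (0.01–512 mg/kg) as two equal doses at challenge and 2 h later, 10 mice per group. Survival was scored at 72 h; PD50 (total mg/kg) was derived by probit.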

Structure (SMILES): N=C(N)SCc1cnccc1SC1=C(C(=O)O)N2C(=O)[C@@H](NC(=O)/C(=N\O)c3csc(N)n3)[C@H]2SC1 [Cmpd 3, (7R)-7-[(Z)-2-(aminothiazol-4-yl)-2-(hydroxyimino)acetamido]-3-(3-isothioureidomethylpyrid-4-ylthio)-3-cephem-4-carboxylate, trifluoroacetic acid salt]
- MIC [1]: 2 µg/mL
- MIC [2]: 0.5 µg/mL
- MIC [3]: 1 µg/mL
- MIC [4]: 8 µg/mL
- MIC [5]: > 32 µg/mL
- MIC [6]: 8 µg/mL
- MIC [7]: 8 µg/mL
- MIC [8]: 8 µg/mL
- MIC [9]: > 32 µg/mL
- MIC [10]: 0.5 µg/mL
- MIC [11]: 0.5 µg/mL
- MIC [12]: 8 µg/mL
- MIC [13]: 2 µg/mL
- MIC [14]: 0.5 µg/mL
- MIC [15]: 8 µg/mL
- responders at 0.156 mg/kg ([16]; read-out: Survivors): 0%
- responders at 0.3125 mg/kg ([16]; read-out: Survivors): 50%
- responders at 0.625 mg/kg ([16]; read-out: Survivors): 80%
- responders at 1.25 mg/kg [16]: 70%
- responders at 2.5 mg/kg ([16]; read-out: Survivors): 90%
- ED50 [16]: 0.42 mg/kg

Structure (SMILES): NCC(=O)NCCSCc1cnccc1SC1=C(C(=O)O)N2C(=O)[C@@H](NC(=O)/C(=N\O)c3nc(N)sc3Cl)[C@H]2SC1 [Cmpd 29, (7R)-7-[(Z)-2-(2-amino-5-chlorothiazol-4-yl)-2-(hydroxyimino)acetamido]-3-[3-(glycyl)aminoethylthiomethylpyrid-4-ylthio]-3-cephem-4-carboxylate, trifluoroacetic acid salt]
- MIC [1]: 8 µg/mL
- MIC [2]: 0.25 µg/mL
- MIC [3]: ≤ 0.06 µg/mL
- MIC [4]: 2 µg/mL
- MIC [5]: > 32 µg/mL
- MIC [6]: 2 µg/mL
- MIC [7]: 0.5 µg/mL
- MIC [8]: 1 µg/mL
- MIC [9]: 4 µg/mL
- MIC [10]: ≤ 0.06 µg/mL
- MIC [11]: 0.25 µg/mL
- MIC [12]: 2 µg/mL
- MIC [13]: 0.25 µg/mL
- MIC [14]: 0.13 µg/mL
- MIC [15]: 1 µg/mL
- responders at 0.3125 mg/kg ([16]; read-out: Survivors): 20%
- responders at 0.625 mg/kg ([16]; read-out: Survivors): 50%
- responders at 1.25 mg/kg [16]: 90%
- responders at 2.5 mg/kg ([16]; read-out: Survivors): 90%
- responders at 5 mg/kg ([16]; read-out: Survivors): 70%
- ED50 [16]: 1.26 mg/kg

Structure (SMILES): N=C(N)NCCSCc1cnccc1SC1=C(C(=O)O)N2C(=O)[C@@H](NC(=O)/C(=N\O)c3csc(N)n3)[C@H]2SC1 [Cmpd 14, (7R)-7-[(Z)-2-(aminothiazol-4-yl)-2-(hydroxyimino)acetamido]-3-(3-guanidinoethylthiomethylpyrid-4-ylthio)-3-cephem-4-carboxylate, trifluoroacetic acid salt]
- MIC [1]: 4 µg/mL
- MIC [2]: 0.5 µg/mL
- MIC [3]: 0.25 µg/mL
- MIC [4]: 4 µg/mL
- MIC [5]: > 32 µg/mL
- MIC [6]: 2 µg/mL
- MIC [7]: 2 µg/mL
- MIC [8]: 4 µg/mL
- MIC [9]: > 32 µg/mL
- MIC [10]: 0.25 µg/mL
- MIC [11]: 0.5 µg/mL
- MIC [12]: 4 µg/mL
- MIC [13]: 1 µg/mL
- MIC [14]: 0.25 µg/mL
- MIC [15]: 4 µg/mL
- responders at 0.3125 mg/kg ([16]; read-out: Survivors): 10%
- responders at 0.625 mg/kg ([16]; read-out: Survivors): 30%
- responders at 1.25 mg/kg [16]: 30%
- responders at 2.5 mg/kg ([16]; read-out: Survivors): 90%
- responders at 5 mg/kg ([16]; read-out: Survivors): 100%
- ED50 [16]: 1.13 mg/kg

Structure (SMILES): NC(=O)CSCc1cnccc1SC1=C(C(=O)O)N2C(=O)[C@@H](NC(=O)/C(=N\O)c3nc(N)sc3Cl)[C@H]2SC1 [Cmpd 39, (7R)-7-[(Z)-2-(2-amino-5-chlorothiazol-4-yl)-2-(hydroxyimino)acetamido]-3-(3-carboxamidomethylthiomethylpyrid-4-ylthio)-3-cephem-4-carboxylic acid]
- MIC [1]: 8 µg/mL (≈ 13 µM)
- MIC [2]: 0.5 µg/mL (≈ 0.812 µM)
- MIC [3]: 0.25 µg/mL (≈ 0.406 µM)
- MIC [4]: 8 µg/mL (≈ 13 µM)
- MIC [5]: > 32 µg/mL
- MIC [6]: 4 µg/mL (≈ 6.49 µM)
- MIC [7]: 2 µg/mL (≈ 3.25 µM)
- MIC [8]: 4 µg/mL (≈ 6.49 µM)
- MIC [9]: 32 µg/mL (≈ 51.9 µM)
- MIC [10]: 0.25 µg/mL (≈ 0.406 µM)
- MIC [11]: 0.25 µg/mL (≈ 0.406 µM)
- MIC [12]: 4 µg/mL (≈ 6.49 µM)
- MIC [13]: 1 µg/mL (≈ 1.62 µM)
- MIC [14]: 0.25 µg/mL (≈ 0.406 µM)
- MIC [15]: 2 µg/mL (≈ 3.25 µM)
- responders at 0.3125 mg/kg ([16]; read-out: Survivors): 10%
- responders at 0.625 mg/kg ([16]; read-out: Survivors): 30%
- responders at 1.25 mg/kg [16]: 60%
- responders at 2.5 mg/kg ([16]; read-out: Survivors): 60%
- responders at 5 mg/kg ([16]; read-out: Survivors): 100%
- ED50 [16]: 1.15 mg/kg

Structure (SMILES): Nc1nc(/C(=N/O)C(=O)N[C@@H]2C(=O)N3C(C(=O)O)=C(Sc4ccncc4CSCC(N)CO)CS[C@H]23)c(Cl)s1 (stereo partly drawn) [Cmpd 56, (7R)-7-[(Z)-2-(2-amino-5-chlorothiazol-4-yl)-2-(hydroxyimino)acetamido]-3-[3-(2RS-2-amino-3-hydroxyprop-1-ylthiomethyl)pyrid-4-ylthio]-3-cephem-4-carboxylate, trifluoroacetic acid salt]
- MIC [1]: 8 µg/mL
- MIC [2]: 0.5 µg/mL
- MIC [3]: 2 µg/mL
- MIC [4]: 4 µg/mL
- MIC [5]: > 32 µg/mL
- MIC [6]: 2 µg/mL
- MIC [7]: 1 µg/mL
- MIC [8]: 2 µg/mL
- MIC [9]: 8 µg/mL
- MIC [10]: 0.13 µg/mL
- MIC [11]: 0.5 µg/mL
- MIC [12]: 2 µg/mL
- MIC [13]: 1 µg/mL
- MIC [14]: 0.25 µg/mL
- MIC [15]: 2 µg/mL
- responders at 0.3125 mg/kg ([16]; read-out: Survivors): 20%
- responders at 0.625 mg/kg ([16]; read-out: Survivors): 30%
- responders at 1.25 mg/kg [16]: 30%
- responders at 2.5 mg/kg ([16]; read-out: Survivors): 80%
- responders at 5 mg/kg ([16]; read-out: Survivors): 80%
- ED50 [16]: 1.23 mg/kg

Structure (SMILES): NCCSCc1cnccc1SC1=C(C(=O)O)N2C(=O)[C@@H](NC(=O)/C(=N\O)c3csc(N)n3)[C@H]2SC1 [Cmpd 10, (7R)-7-[(Z)-2-(aminothiazol-4-yl)-2-(hydroxyimino)acetamido]-3-(3-aminoethylthiomethylpyrid-4-ylthio)-3-cephem-4-carboxylate, trifluoroacetic acid salt]
- MIC [1]: 4 µg/mL
- MIC [2]: 0.5 µg/mL
- MIC [3]: 1 µg/mL
- MIC [4]: 4 µg/mL
- MIC [5]: > 32 µg/mL
- MIC [6]: 2 µg/mL
- MIC [7]: 4 µg/mL
- MIC [8]: 2 µg/mL
- MIC [9]: > 32 µg/mL
- MIC [10]: 0.5 µg/mL
- MIC [11]: 0.5 µg/mL
- MIC [12]: 2 µg/mL
- MIC [13]: 2 µg/mL
- MIC [14]: 0.5 µg/mL
- MIC [15]: 2 µg/mL
- responders at 0.078 mg/kg ([16]; Dose 0.078 mg/kg, read-out: Survivors): 20%
- responders at 0.156 mg/kg ([16]; read-out: Survivors): 20%
- responders at 0.3125 mg/kg ([16]; read-out: Survivors): 20%
- responders at 0.625 mg/kg ([16]; read-out: Survivors): 80%
- responders at 1.25 mg/kg [16]: 100%
- ED50 [16]: 1.29 mg/kg
